Results on 109 compounds are retold here after PubChem BioAssay AID2202554 (NIEHS Division of Translational Toxicology (DTT)).

Inconclusive results are not listed. Active and inactive are the calls of the source. No rule for the calls is given here.

For the data set, the system named is S. typhimurium/E. coli reverse mutation, colony counts. As to the kind of experiment: Bacterial reverse mutation test (aka Ames test) summary data. The method, boiled down: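 S. typhimurium his⁻ strains (TA97–TA1538) and E. coli WP2 uvrA pKM101 trp⁻, dosed over a range with or without rat, hamster or mouse liver S9. Preincubated 20 min at 37° C (or plate incorporation), plated in agar, incubated usually two days. Revertant colonies counted against negative controls.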
Background: The Ames test uses bacterial strains that need an amino acid and regain growth without it when mutated back.
As to `Cc1ncc[nH]1`, the outcome was “inactive; negative”.
As to `COc1c2ccoc2cc2oc(=O)ccc12`, the outcome is “active; positive”.
Turning to `O=C(O)C(Cl)(Cl)Cl`, the outcome was “inactive; negative”.
Take `O=NO`: the outcome is “active; positive”.
Then `Cc1coc2c1CCC(C)C2` (centres undefined), with “inactive; negative”; and `O=C(Cl)c1ccc([N+](=O)[O-])cc1`, with “active; positive”; and `CCCCO`, with “inactive; negative”.
The value for `Cc1nc2ccc(Cl)cc2[nH]1` was “active; positive”; that for `Nc1ccc(Cl)cc1[N+](=O)[O-]` was “active; positive”.
Take `Cc1cc(O)ccc1Cl`: the outcome is “inactive; negative”.
As for `OCCCCO`, the outcome is “inactive; negative”.
The value for `CC=Cc1ccc(O)c(OC)c1` was “inactive; negative”.
Then `O=C(O)COc1cc(Cl)c(Cl)cc1Cl`, with “inactive; negative”; and `CCCCCCCCCCCC(C)=O`, with “inactive; negative”; and `[N-]=[N+]=[N-]`, with “active; positive”.
The value for `CCc1nc(N)nc(N)c1-c1ccc(Cl)cc1` was “inactive; negative”.
Consider `Cc1cc(N)ccc1-c1ccc(N)cc1C`, for which the outcome was “active; positive”.
The value for `CCCNCCC` was “inactive; negative”; that for `OCC(CO)(CCBr)CCBr` was “active; positive”; that for `ClC(Cl)=C(c1ccc(Cl)cc1)c1ccc(Cl)cc1` was “inactive; negative”.
The value for `NC(=O)/C(=C\c1ccc([N+](=O)[O-])o1)c1ccco1` was “active; positive”; that for `CCc1ccc(N)cc1` was “inactive; negative”.
Take `CC[n+]1c(-c2ccccc2)c2cc(N)ccc2c2ccc(N)cc21`: the outcome was “active; positive”.
Then `O=c1[nH]cnc2[nH]ncc12`, with “active; weakly positive”.
Then `CN=C=O`, with “inactive; negative”; and `C=C(C)CCl`, with “active; weakly positive”; and `CCOC(=O)C1=C[C@]2(CC)CCCN3CCc4c(n1c1ccccc41)[C@@H]32`, with “inactive; negative”.
Regarding `C=CCNC(N)=O`, the outcome is “active; positive”.
On to `C=CCCCC`, for which the outcome is “inactive; negative”.
The value for `C=CC(=O)OCC(CO)(COCC(COC(=O)C=C)(COC(=O)C=C)COC(=O)C=C)COC(=O)C=C` was “inactive; negative”; that for `CCCCOC(=O)c1ccccc1C(=O)OC1CCCCC1` was “inactive; negative”; that for `COc1ccc(C(=O)c2ccccc2O)c(O)c1` was “active; positive”.
Take `O=C1O[C@H]([C@@H](O)CO)C(O)=C1O`: the outcome is “active; weakly positive”.
Then `O=C(CCl)c1ccccc1`, with “inactive; negative”.
Then `CN(C)CCCCl`, with “active; positive”; and `O=c1cc(-c2ccc(O)cc2)oc2cc(O)cc(O)c12`, with “inactive; negative”; and `c1ccc(Nc2ccc3ccccc3c2)cc1`, with “inactive; negative”.
The value for `C=C(Cl)CSC(=S)N(CC)CC` was “active; positive”; that for `Cc1ccc(N)cc1[N+](=O)[O-]` was “active; positive”.
On to `NC(N)=NC(N)=NCCc1ccccc1`, for which the outcome is “inactive; negative”.
With `CCOc1cc(C=O)ccc1O`, the outcome was “inactive; negative”.
For `Nc1c(Oc2ccccc2)cc(O)c2c1C(=O)c1ccccc1C2=O`, the outcome is “active; positive”.
Then `NCCCNCCCN`, with “inactive; negative”; and `COc1c(C(C)(C)C)cc([N+](=O)[O-])c(C)c1[N+](=O)[O-]`, with “inactive; negative”.
The value for `CCCCC(CC)COC(=O)CCCCC(=O)O` (centres undefined) was “inactive; negative”; that for `CN(C)c1nc(N(C)C)nc(N(C)C)n1` was “inactive; negative”; that for `[O-]/[N+](=N\O)c1ccccc1` was “active; positive”.
`NCCNCCNCCN`: the outcome is “active; positive”.
In the case of `Nc1cc([N+](=O)[O-])cc(S(=O)(=O)O)c1O`, the outcome was “inactive; negative”.
Turning to `BrCC(Br)C1CCC(Br)C(Br)C1` (centres undefined), the outcome is “inactive; negative”.
Then `COc1ccc(N)c(OC)c1`, with “active; positive”; and `CCCCCC(=O)OCC`, with “inactive; negative”.
As to `CNC[C@H](O)c1ccc(O)c(O)c1`, the outcome was “active; weakly positive”.
The value for `COc1c2occc2cc2ccc(=O)oc12` was “active; positive”; that for `CC(C)(C)c1ccc(O)c(O)c1` was “inactive; negative”.
Take `C[C@H]1CCCC(=O)CCC/C=C/c2cc(O)cc(O)c2C(=O)O1`: the outcome is “inactive; negative”.
Then `ClC1=C(Cl)C2(Cl)C3C(Cl)C=CC3C1(Cl)C2(Cl)Cl` (centres undefined), with “inactive; negative”; and `C[C@@H]1[C@H](O)[C@@H](C)/C=C/C=C/C=C/C=C/C=C/C=C/C=C/[C@H](O[C@@H]2O[C@H](C)[C@@H](O)[C@H](N)[C@@H]2O)C[C@@H]2O[C@](O)(C[C@@H](O)C[C@@H](O)[C@H](O)CC[C@@H](O)C[C@@H](O)CC(=O)O[C@H]1C)C[C@H](O)[C@H]2C(=O)O`, with “inactive; negative”.
As to `COC=O`, the outcome is “inactive; negative”.
The value for `CCCCCCCCCCCCCCCCCCN` was “inactive; negative”; that for `CC[C@]12CCCN3CCc4c(n(c5ccccc45)[C@@](O)(C(=O)OC)C1)[C@@H]32` was “inactive; negative”; that for `O=C1C=CC(=O)C=C1` was “inactive; negative”.
The value for `NC(=O)NC(N)=O` was “active; positive”; that for `CCO` was “inactive; negative”; that for `Nc1ccc(-c2ccc(N)c(O)c2)cc1O` was “active; positive”.
As for `N[C@@H](Cc1c[nH]c2ccccc12)C(=O)O`, the outcome was “inactive; negative”.
The value for `C=CCc1ccc(OC)c(OC)c1` was “inactive; negative”; that for `CCn1cc(C(=O)O)c(=O)c2ccc(C)nc21` was “active; weakly positive”.
Then `CC(=O)Nc1ccc(N)cc1`, with “active; positive”.
Then `C=CC#N`, with “active; positive”.
On to `CC(Cl)Cl`, for which the outcome was “inactive; negative”.
For the compound `Nc1ccc(Cc2ccc(N)c(Cc3ccc(N)cc3)c2)cc1`, the outcome is “active; positive”.
Regarding `NC(=O)c1ccccc1C(N)=O`, the outcome was “inactive; negative”.
As for `CCBr`, the outcome is “active; positive”.
`CC[C@H](C)COC(=O)C=Cc1ccc(N=Cc2ccc(OC)cc2)cc1`: the outcome is “active; positive”.
Then `NCc1ccc(CN)cc1`, with “inactive; negative”; and `O=c1[nH][nH]c(=O)c2cc([N+](=O)[O-])ccc12`, with “active; positive”; and `CC(=O)c1c(C)c([N+](=O)[O-])c(C(C)(C)C)c([N+](=O)[O-])c1C`, with “inactive; negative”.
`COC(=O)[C@H]1[C@H]2C[C@@H]3c4[nH]c5cc(OC)ccc5c4CCN3C[C@H]2C[C@@H](OC(=O)/C=C/c2cc(OC)c(OC)c(OC)c2)[C@@H]1OC`: the outcome was “inactive; negative”.
Take `ClC=CCl`: the outcome was “inactive; negative”.
As to `[O-][N+](=Nc1ccc(Cl)c(Cl)c1)c1ccc(Cl)c(Cl)c1`, the outcome was “inactive; negative”.
The value for `CCc1cccc(C)c1N(C(=O)CCl)C(C)COC` (centres undefined) was “inactive; negative”; that for `O=C1c2c(O)ccc(O)c2C(=O)c2c(NCCO)ccc(NCCO)c21` was “active; positive”.
Then `CN1C(CSCC(F)(F)F)Nc2cc(Cl)c(S(N)(=O)=O)cc2S1(=O)=O` (centres undefined), with “inactive; negative”; and `Oc1cc2c(cc1O)[C@@H]1c3ccc(O)c(O)c3OC[C@]1(O)C2`, with “inactive; negative”.
The value for `N#CCCCl` was “active; positive”; that for `CCCCCCCCCCCOC(=O)c1ccccc1C(=O)OCCCCCCCCCCC` was “inactive; negative”.
On to `CCCCN(CCO)CCCC`, for which the outcome is “inactive; negative”.
Consider `CC(C)CC(C)N` (centres undefined), for which the outcome is “inactive; negative”.
The value for `O=S(=O)([O-])[O-].[O]=[V+2]` was “inactive; negative”.
For `c1cc2c3c(cccc3c1)CC2`, the outcome was “inactive; negative”.
With `CCC(C)C(C)CO` (centres undefined), the outcome was “inactive; negative”.
As for `CN(C)CCCN1c2ccccc2Sc2ccc(Cl)cc21`, the outcome is “inactive; negative”.
Then `N#CCO`, with “inactive; negative”.
The value for `CC(C)(COCC1CO1)COCC1CO1` (centres undefined) was “active; positive”; that for `CN(C)c1ccc(N)cc1` was “active; positive”.
The value for `CC1CCCCC1CO` (centres undefined) was “inactive; negative”.
Turning to `c1ccoc1`, the outcome was “active; weakly positive”.
Consider `CN(C)CCOC(C)(c1ccccc1)c1ccccn1` (centres undefined), for which the outcome was “inactive; negative”.
Then `CCCC(C)=O`, with “inactive; negative”; and `O=C1CCCCC1`, with “inactive; negative”.
The value for `Clc1c(Cl)c(Cl)c2c(c1Cl)Oc1c(Cl)c(Cl)c(Cl)c(Cl)c1O2` was “inactive; negative”; that for `O=C(OCC1CO1)C1CCCCC1C(=O)OCC1CO1` (centres undefined) was “active; positive”; that for `Clc1cccc(Cl)c1` was “inactive; negative”.
`C[Si](C)(C)N[Si](C)(C)C`: the outcome is “inactive; negative”.
The value for `Nc1ccccc1C(=O)OCCc1ccccc1` was “inactive; negative”; that for `Cc1ccc(N)c([N+](=O)[O-])c1` was “active; positive”; that for `CCCCCCCCn1sccc1=O` was “inactive; negative”.
As for `Nc1ccc(Cl)cc1N`, the outcome was “active; positive”.
